According to patent US9955691B2, “Macrocyclic picolinamides as fungicides” (DOW AGROSCIENCES LLC, priority 2014, dated 2018):
Where two headings read alike, the source gives them in different places.

Assays:
[1] = tested on: Mycosphaerella graminicola; Anamorph: Septoria tritici; test: Fungicidal activity: Leaf Blotch of Wheat (SEPTTR); format: in vivo; settings: Zymoseptoria tritici, wheat leaf blotch; for pest or weed control at 100 µg/mL: High Volume (100 ppm); for pest or weed control at 121.5 g/ha: Low Volume (121.5 g/H)
Protocol: Evaluation of Fungicidal Activity: Leaf Blotch of Wheat (Mycosphaerella graminicola; Anamorph: Septoria tritici; Bayer Code […]) Technical grades of materials were dissolved in acetone, which were then mixed with nine volumes of water containing 110 ppm Triton X-100. The fungicide solutions were applied onto wheat seedlings using an automated booth sprayer to run-off. All sprayed plants were allowed to air dry prior to further handling. All fungicides were evaluated using the aforementioned method for their activity vs. all target diseases, unless stated otherwise. Wheat leaf blotch and brown rust activity were also evaluated using track spray applications, in which case the fungicides were formulated as EC formulations, containing 0.1% Trycol 5941 in the spray solutions. Wheat plants (variety Yuma) were grown from seed in a greenhouse in 50% mineral soil/50% soil-less Metro mix until the first leaf was fully emerged, with 7-10 seedlings per pot. These plants were inoculated with an aqueous spore suspension of Septoria tritici either prior to or after fungicide treatments. After inoculation the plants were kept in 100% relative humidity (one day in a dark dew chamber followed by two to three days in a lighted dew chamber at 20° C.) to permit spores to germinate and infect the leaf. The plants were then transferred to a greenhouse set at 20° C. for disease to develop. When disease symptoms were fully expressed on the 1st leaves of untreated plants, infection levels were assessed on a scale of 0 to 100 percent disease severity. Percent disease control was calculated using the ratio of disease severity on treated plants relative to untreated plants.

[2] = tested on: Puccinia triticina; test: Fungicidal activity: Wheat Brown Rust (PUCCRT); format: in vivo; settings: for pest or weed control at 100 µg/mL: High Volume (100 ppm); for pest or weed control at 121.5 g/ha: Low Volume (121.5 g/H)
Protocol: Technical grades of materials were dissolved in acetone, which were then mixed with nine volumes of water containing 110 ppm Triton X-100. The fungicide solutions were applied onto wheat seedlings using an automated booth sprayer to run-off. All sprayed plants were allowed to air dry prior to further handling. All fungicides were evaluated using the aforementioned method for their activity vs. all target diseases, unless stated otherwise. Wheat leaf blotch and brown rust activity were also evaluated using track spray applications, in which case the fungicides were formulated as EC formulations, containing 0.1% Trycol 5941 in the spray solutions. Wheat plants (variety Yuma) were grown from seed in a greenhouse in 50% mineral soil/50% soil-less Metro mix until the first leaf was fully emerged, with 7-10 seedlings per pot. These plants were inoculated with an aqueous spore suspension of Septoria tritici either prior to or after fungicide treatments. After inoculation the plants were kept in 100% relative humidity (one day in a dark dew chamber followed by two to three days in a lighted dew chamber at 20° C.) to permit spores to germinate and infect the leaf. The plants were then transferred to a greenhouse set at 20° C. for disease to develop. When disease symptoms were fully expressed on the 1st leaves of untreated plants, infection levels were assessed on a scale of 0 to 100 percent disease severity. Percent disease control was calculated using the ratio of disease severity on treated plants relative to untreated plants. Evaluation of Fungicidal Activity: Wheat Brown Rust (Puccinia triticina; Synonym: Puccinia recondite f. Sp. Tritici; Bayer Code PUCCRT) Wheat plants (variety Yuma) were grown from seed in a greenhouse in 50% mineral soil/50% soil-less Metro mix until the first leaf was fully emerged, with 7-10 seedlings per pot. These plants were inoculated with an aqueous spore suspension of Puccinia triticina either prior to or after fungicide treatments. After inoculation the plants were kept in a dark dew room at 22° C. with 100% relative humidity overnight to permit spores to germinate and infect the leaf. The plants were then transferred to a greenhouse set at 24° C. for disease to develop. Fungicide formulation, application and disease assessment followed the procedures as described in the Example A.

[3] = 24 h, 1 Day Protectant, read-out: SEPTTR 1 DP disease control
[4] = 72 h, 3 Day Curative, read-out: SEPTTR 3 DC disease control
[5] = 24 h, 1 Day Protectant, read-out: PUCCRT 1 DP disease control
[6] = 72 h, 3 Day Curative, read-out: PUCCRT 3 DC disease control

SMILES | pest or weed control at 100 µg/mL [1, 3] [%] | pest or weed control at 100 µg/mL [1, 4] [%] | pest or weed control at 100 µg/mL [2, 5] [%] | pest or weed control at 100 µg/mL [2, 6] [%] | pest or weed control at 121.5 g/ha [1, 3] [%] | pest or weed control at 121.5 g/ha [1, 4] [%] | pest or weed control at 121.5 g/ha [2, 5] [%] | pest or weed control at 121.5 g/ha [2, 6] [%]
COc1ccnc(C(=O)N[C@H]2COC[C@H](Cc3ccccc3)[C@@H](CC(C)C)[C@H](C)OC2=O)c1O [compound 125] | < 70 | < 70 | > 70 | < 70 |  |  |  | 
CCOCC(=O)OCOc1c(OC)ccnc1C(=O)N[C@H]1COC[C@H](Cc2ccccc2)[C@@H](CC(C)C)[C@H](C)OC1=O [compound 21] |  |  |  |  | > 70 | > 70 | > 70 | > 70
COc1ccnc(C(=O)N[C@@H]2COC[C@@H](Cc3ccccc3)[C@H](COCC(C)C)[C@@H](C)OC2=O)c1O [compound 122] | < 70 | < 70 | < 70 | < 70 |  |  |  | 
COc1ccnc(C(=O)N[C@H]2COC[C@H](Cc3ccccc3)[C@@H](Cc3ccc(F)cc3)[C@H](C)OC2=O)c1OC(C)=O [compound 60] |  |  |  |  | > 70 | < 70 | < 70 | < 70
COc1ccnc(C(=O)N[C@H]2COC[C@H](Cc3ccccc3)[C@@H](Cc3ccccc3)[C@@H](C)OC2=O)c1OCOC(C)=O [compound 2] | < 70 | < 70 | < 70 | < 70 |  |  |  | 
COc1ccnc(C(=O)N[C@H]2COC[C@H](CCC(C)C)[C@@H](CCc3ccccc3)[C@H](C)OC2=O)c1O [compound 129] | > 70 | > 70 | > 70 | > 70 |  |  |  | 
COc1ccnc(C(=O)N[C@H]2COC[C@H](CC3CC3)[C@@H](c3ccccc3)[C@H](C)OC2=O)c1OCOC(=O)C(C)C [compound 102] |  |  |  |  | > 70 | > 70 | > 70 | > 70
COc1ccnc(C(=O)N[C@H]2COC[C@H](Cc3ccc(C(F)(F)F)cc3)[C@@H](Cc3ccccc3)[C@H](C)OC2=O)c1O [compound 136] | > 70 | < 70 | > 70 | > 70 |  |  |  | 
CCOCC(=O)OCOc1c(OC)ccnc1C(=O)N[C@H]1COC[C@H](Cc2ccccc2)[C@@H](CCc2ccccc2)[C@H](C)OC1=O [compound 32] |  |  |  |  | > 70 | > 70 | > 70 | > 70
COc1ccnc(C(=O)N[C@H]2COC[C@H](CCCc3ccccc3)[C@@H](Cc3ccc(OC(F)(F)F)cc3)[C@H](C)OC2=O)c1OCOC(C)=O [compound 76] |  |  |  |  | > 70 | > 70 | > 70 | < 70
COc1ccnc(C(=O)N[C@H]2COC[C@H](CCC(C)C)[C@@H](Cc3ccccc3)[C@H](C)OC2=O)c1OCOC(C)=O [compound 44] |  |  |  |  | > 70 | > 70 | > 70 | < 70
C=C(C)COC[C@@H]1[C@@H](Cc2ccccc2)COC[C@H](NC(=O)c2nccc(OC)c2O)C(=O)O[C@H]1C [compound 120] | < 70 | < 70 | < 70 | < 70 |  |  |  | 
COc1ccnc(C(=O)N[C@H]2COC[C@H](CCC(C)C)[C@@H](CCc3ccccc3)[C@H](C)OC2=O)c1OC(C)=O [compound 33] |  |  |  |  | > 70 | > 70 | > 70 | > 70
COc1ccnc(C(=O)N[C@H]2COC[C@H](Cc3ccc(C(F)(F)F)cc3)[C@@H](Cc3ccc(OC(F)(F)F)cc3)[C@H](C)OC2=O)c1O [compound 138] | < 70 | < 70 | < 70 | < 70 |  |  |  | 
COc1ccnc(C(=O)N[C@H]2COC[C@H](Cc3ccc(Cl)cc3)[C@@H](Cc3ccccc3)[C@H](C)OC2=O)c1OCOC(C)=O [compound 47] |  |  |  |  | > 70 | > 70 | > 70 | > 70
CCOCC(=O)OCOc1c(OC)ccnc1C(=O)N[C@H]1COC[C@H](Cc2ccccc2)[C@@H](CCC(C)C)[C@H](C)OC1=O [compound 83] |  |  |  |  | > 70 | > 70 | > 70 | > 70
COc1ccnc(C(=O)N[C@H]2COC[C@H](Cc3ccccc3)[C@@H](C3CCCC3)[C@H](C)OC2=O)c1OC(C)=O [compound 37] |  |  |  |  | > 70 | > 70 | > 70 | > 70
CCC[C@H]1COC[C@H](NC(=O)c2nccc(OC)c2OCOC(C)=O)C(=O)O[C@@H](C)[C@@H]1CC(C)C [compound 63] |  |  |  |  | < 70 | < 70 | > 70 | < 70
COc1ccnc(C(=O)N[C@H]2COC[C@H](CCCc3ccccc3)[C@@H](Cc3ccccc3)[C@H](C)OC2=O)c1OCOC(=O)C(C)C [compound 43] |  |  |  |  | > 70 | > 70 | > 70 | < 70
COc1ccnc(C(=O)N[C@H]2COC[C@H](Cc3ccc(C(F)(F)F)cc3)[C@@H](Cc3ccccc3)[C@H](C)OC2=O)c1OCOC(=O)C(C)C [compound 57] |  |  |  |  | > 70 | > 70 | > 70 | < 70
CCC[C@H]1COC[C@H](NC(=O)c2nccc(OC)c2OC(C)=O)C(=O)O[C@@H](C)[C@@H]1CC(C)C [compound 64] |  |  |  |  | > 70 | > 70 | > 70 | > 70
CCOCC(=O)OCOc1c(OC)ccnc1C(=O)N[C@H]1COC[C@H](CCC(C)C)[C@@H](CCc2ccccc2)[C@H](C)OC1=O [compound 36] |  |  |  |  | > 70 | > 70 | > 70 | < 70
CCCC[C@@H]1[C@@H](Cc2ccccc2)COC[C@H](NC(=O)c2nccc(OC)c2OCOC(C)=O)C(=O)O[C@H]1C [compound 14] | < 70 | < 70 | < 70 | < 70 |  |  |  | 
COc1ccnc(C(=O)N[C@H]2COC[C@H](Cc3ccccc3)[C@@H](CCc3ccccc3)[C@H](C)OC2=O)c1OC(C)=O [compound 29] |  |  |  |  | > 70 | > 70 | > 70 | > 70
CCOCC(=O)OCOc1c(OC)ccnc1C(=O)N[C@H]1COC[C@H](Cc2ccc(Cl)cc2)[C@@H](CC(C)C)[C@H](C)OC1=O [compound 74] |  |  |  |  | > 70 | > 70 | > 70 | < 70
